Patent US3989701A, “Diamine-benzophenones and a process for the preparation thereof” (Richter Gedeon Vegyeszeti Gyar Rt., priority 1973, dated 1976)

Tests used:
yohimbine lethality = experiment: Potentiation of yohimbine lethality; format: in vivo, CFLP male mice
Protocol: To investigate the yohimbine-potentiating effect, CFLP male mice each weighing 20 to 25 g. were treated orally with the compounds according to the invention, and 1 hour after this treatment yohimbine was injected subcutaneously into the animals in a dosage of 20 mg./kg.

LD50 (acute toxicity) = settings: in vivo, po
[1] = Rotarod / ataxis and reflex retardation
liver microsomal enzymes = experiment: Enzyme inductive effect (shortening of duration of sleeping after hexobarbital); format: in vivo, Wistar female rats; settings: for Average duration of sleeping ± S.E.: Dosage 60 mg./kg. p.o., hexobarbital 40 mg./kg. i.v. 24 hours later, control 27.4 ± 3.02
Protocol: To investigate the enzyme inductive effect, Wistar female rats, each weighing 40 to 50 g. were treated with pure solvent, or with a dosage of 60 mg./kg. of phenobarbital or the compound to be tested, respectively. 24 hours after this treatment 40 mg./kg. of hexobarbital were administered intravenously into the animals. The decrease of the elimination period and the liver enzyme induction was expressed as the shortening of duration of sleeping.

[2] = Antipyretic effect (yeast- and pyragro-treated rats, rectal temperature); format: in vivo, male rats; settings: Dosage 40 mg./kg. orally; rectal temperature recorded for 5 hours
Protocol: To test the antipyretic effect, a 15% yeast suspension was administered to male rats each weighing 180 ±10 g. No food was given to the animals, they could consume, however, arbitrary amount of water. 16 hours after the administration of yeast the rectal temperature of the animals was taken, and the animals were treated with pyragro in an intravenous dosage of 50 M bact./animal. The compound to be tested was administered orally into the animals, thereafter the change in rectal temperature both for the treated and the control animals was recorded for 5 hours, using an "Elab" type electrothermometer. Phenacetine, used as reference substance, and the compounds of the invention were administered in dosages of 40 mg./kg. body weight.

[3] = Harmful effects on the kidneys; format: in vivo; settings: in words, compared with phenacetine
[4] = Effect on the central nervous system; format: in vivo; settings: in words

Compound | LD50 (LD50 (acute toxicity)) [mg/kg] | Average duration of sleeping ± S.E. (liver microsomal enzymes) [min] | also measured
CN1CCN(c2ccc(C(=O)c3ccccc3)cc2N)CC1 [C3, 3-amino-4-(N-methyl-piperazino)-benzophenone] | > 3000 | – | ED50 (yohimbine lethality; Mus musculus, sc, yohimbine 20 mg./kg. s.c. 1 hour after treatment, deaths counted at 24 hours, probit analysis): 30 mg/kg; antidepressant activity / yohimbine lethality increasing effect (in words) (yohimbine lethality; compared with imipramine where stated): inferior in antidepressant activity to imipramine; TD50 (in vivo): 160 mg/kg; ataxis or reflex retardation ([1]; in the active dosage): causes no ataxis or reflex retardation
CCN(c1ccccc1)c1ccc(C(=O)c2ccccc2)cc1N [C6, 3-amino-4-(N-ethyl-N-phenylamino)-benzophenone] | > 400 | 11.6 ± 2.71 | –
CC(C)CN(CC(C)C)c1ccc(C(=O)c2ccccc2)cc1N [C7, 3-amino-4-(N,N-diisobutylamino)-benzophenone] | > 600 | 10.0 ± 1.92 | –
Nc1cc(C(=O)c2ccccc2)ccc1N1CCOCC1 [C8, 3-amino-4-morpholino-benzophenone] | > 3000 | – | Decrease of temperature [2]: -1.0 °C; harmful effects on the kidneys [3]: no harmful effects on the kidneys
CCC(=O)Nc1cc(C(=O)c2ccccc2)ccc1N1CCOCC1.Cl [C11, 3-propionylamino-4-morpholino-benzophenone HCl] | > 450 | 9.0 ± 1.30 | enzyme-inducing effect (in words) (liver microsomal enzymes; compared with phenobarbital where stated): the same in strength as for phenobarbital; effect on the central nervous system [4]: no effect on the central nervous system
CCCCCCCCCCCCCCCC(=O)Nc1cc(C(=O)c2ccccc2)ccc1N1CCOCC1 [C12, 3-palmitoylamino-4-morpholino-benzophenone] | > 500 | 10.4 ± 1.02 | –
CN(C)CCCN1c2ccccc2CCc2ccccc21 [Imipramine, 5-(3-dimethylaminopropyl)-10,11-dihydro-5H-dibenz(b,f)azepin, reference compound] | – | – | TD50 ([1]; rotarod): 28 mg/kg
CCOc1ccc(NC(C)=O)cc1 [Phenacetine, reference compound] | 2400 | – | Decrease of temperature [2]: -1.0 °C
CCC1(c2ccccc2)C(=O)NC(=O)NC1=O [Phenobarbital, reference compound] | 240 | 5.4 ± 1.63 | –
